Assay results published in ChEMBL document CHEMBL1148062, “Cylindol A, a novel biphenyl ether with 5-lipoxygenase inhibitory activity, and a related compound from Imperata Cylindrica” (J Nat Prod, 1994).

Tests used:
[1] = target: T1, Polyunsaturated fatty acid 5-lipoxygenase (Rattus norvegicus) (UniProt P12527); settings: RBL-1, 15 uM
T1 sequence (whole entry): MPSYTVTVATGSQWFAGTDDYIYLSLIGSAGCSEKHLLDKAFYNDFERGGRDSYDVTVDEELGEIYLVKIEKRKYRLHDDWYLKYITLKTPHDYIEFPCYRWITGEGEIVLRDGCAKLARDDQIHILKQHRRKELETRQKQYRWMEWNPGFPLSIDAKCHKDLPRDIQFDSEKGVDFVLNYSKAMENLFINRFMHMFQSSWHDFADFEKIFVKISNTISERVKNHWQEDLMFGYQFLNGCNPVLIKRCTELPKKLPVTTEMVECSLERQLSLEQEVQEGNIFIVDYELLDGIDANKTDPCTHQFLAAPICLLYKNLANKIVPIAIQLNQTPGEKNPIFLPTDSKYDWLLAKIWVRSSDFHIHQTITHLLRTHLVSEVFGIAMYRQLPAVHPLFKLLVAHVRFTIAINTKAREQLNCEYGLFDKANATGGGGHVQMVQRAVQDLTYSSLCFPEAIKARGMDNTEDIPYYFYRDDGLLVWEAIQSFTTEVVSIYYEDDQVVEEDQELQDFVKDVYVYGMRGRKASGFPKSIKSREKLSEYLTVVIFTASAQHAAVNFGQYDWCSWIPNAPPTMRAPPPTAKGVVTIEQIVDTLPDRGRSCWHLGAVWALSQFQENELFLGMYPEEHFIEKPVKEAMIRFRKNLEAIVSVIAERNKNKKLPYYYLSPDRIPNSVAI
Description: Inhibition of rat 5-lipoxygenase in rat RBL1 cells at 15 uM

[2] = target: T1, Polyunsaturated fatty acid 5-lipoxygenase (Rattus norvegicus); experiment: Inhibition of rat 5-lipoxygenase in rat RBL1 cells at 30 uM; assay type: cell-based; settings: RBL-1

| inhibition [1] [%] | inhibition [2] [%] | SMILES |
| --- | --- | --- |
| 50 |  | O=C1CCN(c2ccccc2)N1 |
|  | 64 | COC(=O)c1ccc(O)c(Oc2cc(C(=O)OC)ccc2O)c1 |
